These results are taken from patent US5057493A, “Novel antibiotics R106” (priority 1988, dated 1991).

Starred links: 1 amine or outer side, 2 acyl side, 3 side chain; linkers in the order of their positions; H or OH if unused. Non-standard residues stand in square brackets, D forms with d. Residues, ends and D or L forms follow the SMILES beside them. ξ: configuration not given here. X2 = CN(C(C(=O)[*:2])C(O)c1ccccc1)[*:1]; X4 = CC(C(=O)O)C(C(=O)[*:2])N(C)[*:1]; ξNMeVal(3-OH) = CNC(C(=O)O)C(C)(C)O; X3 = C=C(C)C(C(=O)[*:2])N(C)[*:1]; X5 = CC(CO)C(C(=O)[*:2])N(C)[*:1]; X6 = CC(C)=C(C(=O)[*:2])N(C)[*:1]; NMeF = CN[CH](Cc1ccccc1)C(=O)O; X1 = CCC(C)C(O[*:1])C(=O)[*:2]; NMeV = CN[CH](C(=O)O)C(C)C; Hiv = CC(C)[CH](O)C(=O)O

Holding throughout (assay): MIC by agar dilution method, casitone agar
Assay type in all cases: cell-based
Common to all, as to settings: Table 5
On the technique in general: In agar dilution, organisms are placed on agar that contains the substance at set levels.

The test system of assay [1] is Candida glabrata TIMM 1062. The procedure:
(§1) The minimum inhibitory concentration (MIC) of each antibiotic against various fungi was determined by the agar dilution method using casitone agar medium (2.0% glucose, 0.9% bacto-casitone, 1.0% yeast extract, 0.1% KH2 PO4, 0.1% Na2 HPO4, 1.0% sodium citrate, 2.0% agar: concentrations are all by w/v).
(§2) Each minimum growth inhibitory concentration was determined after culturing at 27° C. for 4 days.

For assay [2], the system named is Cryptococcus neoformans TIMM 0354. The procedure: as §1, §2
For assay [3], the system named is Candida albicans TIMM 0136. Here is the method: (§3) The antibiotics R106 of the present invention are active against various fungi including pathogenic fungi. The minimum inhibitory concentration (MIC) of each antibiotic against various fungi was determined by the agar dilution method using casitone agar medium (2.0% glucose, 0.9% bacto-casitone, 1.0% yeast extract, 0.1% KH2 PO4, 0.1% Na2 HPO4, 1.0% sodium citrate, 2.0% agar: concentrations are all by w/v).

The test system of assay [4] is Candida albicans TIMM 0171. The procedure:
as §3

Assay [5] concerns Candida albicans TIMM 1768. Here is the method:
as §3

The subject of a further assay is Candida kefyr TIMM 0301. The procedure:
as §3

`CCC(C)C1NC(=O)C2CCCN2C(=O)C(Cc2ccccc2)N(C)C(=O)C(Cc2ccccc2)NC(=O)C(C(C)C)N(C)C(=O)C(C(C)CC)OC(=O)C(C(C)C)N(C)C(=O)C(CC(C)C)NC(=O)C(C(C)C)NC1=O` (stereo not drawn) [Compound 16] (cyclo([X1][NMeV]F[NMeF]PIVL[NMeV]); configuration not given here): the “minimum inhibitory concentration (MIC)” value was above 25 in assay [1]; above 25 in assay [2]; 3.12 in assay [3]; 1.56 in assay [4]; 25 in assay [5]; 3.12 in the assay on Candida kefyr TIMM 0301.
For `CCC(C)C1NC(=O)C2CCCN2C(=O)C(Cc2ccccc2)N(C)C(=O)C(Cc2ccccc2)NC(=O)C(C(C)C)N(C)C(=O)C(C(C)CC)OC(=O)C(Cc2ccccc2)N(C)C(=O)C(CC(C)C)NC(=O)C(C(C)C)N(C)C1=O` (stereo not drawn) [Compound 17] (cyclo([X1][NMeV]F[NMeF]PI[NMeV]L[NMeF]); configuration not given here), the “minimum inhibitory concentration (MIC)” value in assay [1] is above 25; in assay [2] it was above 25; in assay [3] it was 12.5; in assay [4], 25; in assay [5] it was above 25; in the assay with Candida kefyr TIMM 0301, above 25.
In the case of `CCC(C)C1NC(=O)C2CCCN2C(=O)C(Cc2ccccc2)N(C)C(=O)C(Cc2ccccc2)NC(=O)C(C(C)C)N(C)C(=O)C(C(C)CC)OC(=O)C(C(C)C)NC(=O)C(CC(C)C)NC(=O)C(C(C)C)N(C)C1=O` (stereo not drawn) [Compound 8] (cyclo([X1][NMeV]F[NMeF]PI[NMeV]LV); configuration not given here), the “minimum inhibitory concentration (MIC)” value in assay [1] is above 25; in assay [2] it was above 25; in assay [3], 1.56; in assay [4], 1.56; in assay [5], 12.5; in the assay on Candida kefyr TIMM 0301 it was above 25.
In the case of `CCC(C)C1NC(=O)C2CCCN2C(=O)C(Cc2ccccc2)N(C)C(=O)C(Cc2ccccc2)NC(=O)C(C(C)C)N(C)C(=O)C(C(C)CC)OC(=O)C(=C(C)C)N(C)C(=O)C(CC(C)C)NC(=O)C(C(C)C)N(C)C1=O` (stereo not drawn) [Compound 18] (cyclo([X6][X1][NMeV]F[NMeF]PI[NMeV]L); configuration not given here), the “minimum inhibitory concentration (MIC)” value in assay [1] is given as above 25; in assay [2], above 25; in assay [3], 6.25; in assay [4], 3.12; in assay [5], 25; in the assay on Candida kefyr TIMM 0301, 25.
`CCC(C)C1NC(=O)C2CCCN2C(=O)C(Cc2ccccc2)N(C)C(=O)C(Cc2ccccc2)NC(=O)C(C(C)C)N(C)C(=O)C(C(C)CC)OC(=O)C(C(C)CO)N(C)C(=O)C(CC(C)C)NC(=O)C(C(C)C)N(C)C1=O` (stereo not drawn) [Compound 4] (cyclo([X5][X1][NMeV]F[NMeF]PI[NMeV]L); configuration not given here): the “minimum inhibitory concentration (MIC)” value came to 1.56 in assay [1]; 25 in assay [2]; 0.20 in assay [3]; 0.10 in assay [4]; 0.39 in assay [5]; 0.78 in the assay on Candida kefyr TIMM 0301.
Take `CCC(C)C1NC(=O)C2CCCN2C(=O)C(Cc2ccccc2)NC(=O)C(Cc2ccccc2)NC(=O)C(C(C)C)N(C)C(=O)C(C(C)CC)OC(=O)C(C(C)C)N(C)C(=O)C(CC(C)C)NC(=O)C(C(C)C)N(C)C1=O` (stereo not drawn) [Compound 13] (cyclo([X1][NMeV]FFPI[NMeV]L[NMeV]); configuration not given here): the “minimum inhibitory concentration (MIC)” value in assay [1] was above 25; in assay [2], above 25; in assay [3] it was 6.25; in assay [4], 12.5; in assay [5], 12.5; in the assay on Candida kefyr TIMM 0301, 25.
Turning to `CCC(C)C1NC(=O)C2CCCN2C(=O)C(Cc2ccccc2)N(C)C(=O)C(Cc2ccccc2)NC(=O)C(C(C)C)N(C)C(=O)C(C(C)C)OC(=O)C(C(C)C)N(C)C(=O)C(CC(C)C)NC(=O)C(C(C)C)N(C)C1=O` (stereo not drawn) [Compound 11] (cyclo(F[NMeF]PI[NMeV]L[NMeV][Hiv][NMeV]); configuration not given here), the “minimum inhibitory concentration (MIC)” value in assay [1] is above 25; in assay [2], above 25; in assay [3], 1.56; in assay [4] it was 1.56; in assay [5] it was 1.56; with Candida kefyr TIMM 0301, 6.25.
On to `CCC(C)C1NC(=O)C2CCCN2C(=O)C(Cc2ccccc2)N(C)C(=O)C(Cc2ccccc2)NC(=O)C(C(C)C)N(C)C(=O)C(C(C)CC)OC(=O)C(C(C)(C)O)N(C)C(=O)C(CC(C)C)NC(=O)C(C(C)C)NC1=O` (stereo not drawn) [Compound 6] (cyclo([ξNMeVal(3-OH)][X1][NMeV]F[NMeF]PIVL); configuration not given here), for which the “minimum inhibitory concentration (MIC)” value in assay [1] came out at 1.56; in assay [2], 25; in assay [3], 0.78; in assay [4], 0.39; in assay [5], 0.39; in the assay on Candida kefyr TIMM 0301, 0.39.
Consider `C=C(C)C1C(=O)OC(C(C)CC)C(=O)N(C)C(C(C)C)C(=O)NC(Cc2ccccc2)C(=O)N(C)C(Cc2ccccc2)C(=O)N2CCCC2C(=O)NC(C(C)CC)C(=O)N(C)C(C(C)C)C(=O)NC(CC(C)C)C(=O)N1C` (stereo not drawn) [Compound 14] (cyclo([X3][X1][NMeV]F[NMeF]PI[NMeV]L); configuration not given here), for which the “minimum inhibitory concentration (MIC)” value was 12.5 in assay [1]; above 25 in assay [2]; 1.56 in assay [3]; 1.56 in assay [4]; 12.5 in assay [5]; 6.25 with Candida kefyr TIMM 0301.
With `CCC(C)C1NC(=O)C2CCCN2C(=O)C(Cc2ccccc2)N(C)C(=O)C(Cc2ccccc2)NC(=O)C(C(C)C)N(C)C(=O)C(C(C)CC)OC(=O)C(C(C)C(=O)O)N(C)C(=O)C(CC(C)C)NC(=O)C(C(C)C)N(C)C1=O` (stereo not drawn) [Compound 10] (cyclo([X4][X1][NMeV]F[NMeF]PI[NMeV]L); configuration not given here), the “minimum inhibitory concentration (MIC)” value in assay [1] is on record as 3.12; in assay [2] it was 25; in assay [3], 0.78; in assay [4] it was 0.78; in assay [5], 12.5; with Candida kefyr TIMM 0301 it was 3.12.
As to `CCC(C)C1OC(=O)C(C(C)C)N(C)C(=O)C(CC(C)C)NC(=O)C(C(C)C)N(C)C(=O)C(C(C)C)NC(=O)C2CCCN2C(=O)C(Cc2ccccc2)N(C)C(=O)C(Cc2ccccc2)NC(=O)C(C(C)C)N(C)C1=O` (stereo not drawn) [Compound 12] (cyclo([X1][NMeV]F[NMeF]PV[NMeV]L[NMeV]); configuration not given here), the “minimum inhibitory concentration (MIC)” value in assay [1] is above 25; in assay [2], above 25; in assay [3], 6.25; in assay [4], 6.25; in assay [5], 25; in the assay on Candida kefyr TIMM 0301, 12.5.
For `CCC(C)C1NC(=O)C2CCCN2C(=O)C(Cc2ccccc2)N(C)C(=O)C(Cc2ccccc2)NC(=O)C(C(C)C)N(C)C(=O)C(C(C)CC)OC(=O)C(C(O)c2ccccc2)N(C)C(=O)C(CC(C)C)NC(=O)C(C(C)C)N(C)C1=O` (stereo not drawn) [Compound 15] (cyclo([X2][X1][NMeV]F[NMeF]PI[NMeV]L); configuration not given here), the “minimum inhibitory concentration (MIC)” value in assay [1] is reported as above 25; in assay [2], 25; in assay [3], 12.5; in assay [4], 25; in assay [5], 25; with Candida kefyr TIMM 0301, above 25.
On to `CCC(C)C1OC(=O)C(C(C)(C)O)N(C)C(=O)C(CC(C)C)NC(=O)C(C(C)C)N(C)C(=O)C(C(C)C)NC(=O)C2CCCN2C(=O)C(Cc2ccccc2)N(C)C(=O)C(Cc2ccccc2)NC(=O)C(C(C)C)N(C)C1=O` (stereo not drawn) [Compound 3] (cyclo([ξNMeVal(3-OH)][X1][NMeV]F[NMeF]PV[NMeV]L); configuration not given here), for which the “minimum inhibitory concentration (MIC)” value in assay [1] was 0.20; in assay [2] it was 1.56; in assay [3], 0.10; in assay [4] it was 0.10; in assay [5], 1.56; in the assay with Candida kefyr TIMM 0301 it was 0.20.
